# Results: US4180578A, “2,4-Diamino-5-(4'-methylthio)benzylpyrimidenes, compounds, compositions and method of use” (Ludwig Heumann, & Co. GmbH, priority 1977, dated 1979)
# Tests used:
# E. Coli = test: MIC, serial dilution test, DST-Agar; type: cell-based; details: Escherichia coli, n = 15, DST-Agar, read-out: Geometrical mean value of MIC
# Excerpt: (§1) MIC values in μg/ml (serial dilution test, DST-Agar)
# (§2) Geometrical mean value of MIC in μg/ml
# Enterococcus = test: MIC, serial dilution test, DST-Agar; type: cell-based; details: n = 2, DST-Agar, read-out: Geometrical mean value of MIC
# Excerpt: as §1, §2
# Klebsiellae = test: MIC, serial dilution test, DST-Agar; type: cell-based; details: n = 3, DST-Agar, read-out: Geometrical mean value of MIC
# Excerpt: as §1, §2
# Proteus = test: MIC, serial dilution test, DST-Agar; type: cell-based; details: n = 3, DST-Agar, read-out: Geometrical mean value of MIC
# Excerpt: as §1, §2
# in vivo = details: po, mouse, intragastral, safety limits p = 0.05 printed for TMP: lower 2105.5, upper 3629.8
# Excerpt: 2,4-diamino-5-(3',5'-dimethoxy-4'-S-methyl)-
# benzylpyrimidine (mouse, intragastral administration) (determined
# according to J.T. Litchfield and F. Wilcoxon in "J. Pharmacol.
# Serum level, rat = type: in vivo; details: po, 50 mg/kg i.g.
# Experimental: |Serum level, rat (50 mg/kg i.g.)
SMILES,MIC (E. Coli),MIC (Enterococcus),MIC (Klebsiellae),MIC (Proteus),LD50 (in vivo),"concentration at 0.5 h (Serum level, rat)","concentration at 1 h (Serum level, rat)"
"COc1cc(Cc2cnc(N)nc2N)cc(OC)c1SC [2,4-diamino-5-(3',5-dimethoxy-4'-methylthio)-benzylpyrimidine]",0.142 µg/mL,0.156 µg/mL,0.248 µg/mL,0.992 µg/mL,> 5000 mg/kg,5000 ng/mL,2700 ng/mL
"COc1cc(Cc2cnc(N)nc2N)cc(OC)c1OC [TMP, 2,4-diamino-5-(3'4',5'-trimethoxybenzyl)-pyrimidine]",0.108 µg/mL,0.078 µg/mL,0.496 µg/mL,0.625 µg/mL,2760 mg/kg,4500 ng/mL,3300 ng/mL
